Measurements: patent US10519211B2, “Compounds as peptidic GLP1/glucagon/GIP receptor agonists” (SANOFI, priority 2016, dated 2019)
Numbered stars: 1 amine (or outer) side, 2 acyl side, 3 side chain; on linkers, the order of the positions; unused ones are H or OH. Square brackets hold non-standard residues; d marks the D form. Side chains are listed from the residue outwards. Peptide text beside a SMILES is read from it. * marks the point of attachment. Adipoyl(4R-palmitoylamino) = CCCCCCCCCCCCCCCC(=O)N[C@H](CCC(=O)*)CC(=O)O; γGlu = O=C(O)[C@H](CCC(=O)[*:2])N[*:1]; Palmitoyl = CCCCCCCCCCCCCCCC(=O)*; AEEA = NCCOCCOCC(=O)O; Aib = CC(C)(N)C(=O)O

Tests used:
[1] = biological target: T1, human GIP receptor (hGIP-R) (Homo sapiens, UniProt P48546); experiment: cAMP response (HTRF) of HEK-293 cells stably expressing human GIP receptor; type: cell-based; conditions: Table 8; cAMP formation
T1 construct: expressed in transfected cells; host or cells: HEK-293
T1 sequence (P48546 22-466): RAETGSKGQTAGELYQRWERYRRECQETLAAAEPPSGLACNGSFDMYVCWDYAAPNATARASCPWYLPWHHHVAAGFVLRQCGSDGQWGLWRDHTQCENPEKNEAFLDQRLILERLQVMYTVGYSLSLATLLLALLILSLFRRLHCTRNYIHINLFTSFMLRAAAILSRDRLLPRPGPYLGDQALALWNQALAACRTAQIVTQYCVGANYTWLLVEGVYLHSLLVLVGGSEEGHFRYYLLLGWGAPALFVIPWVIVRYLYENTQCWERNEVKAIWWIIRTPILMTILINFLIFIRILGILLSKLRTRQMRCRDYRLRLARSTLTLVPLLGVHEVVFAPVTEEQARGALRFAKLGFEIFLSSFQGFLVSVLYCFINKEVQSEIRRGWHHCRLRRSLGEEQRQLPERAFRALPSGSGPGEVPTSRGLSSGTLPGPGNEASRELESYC
Procedure: cAMP content of cells was determined using a kit from Cisbio Corp. (cat. no. 62AM4PEJ) based on HTRF (Homogenous Time Resolved Fluorescence). For preparation, cells were split into T175 culture flasks and grown overnight to near confluency in medium (DMEM/10% FBS). Medium was then removed and cells washed with PBS lacking calcium and magnesium, followed by proteinase treatment with accutase (Sigma-Aldrich cat. no. A6964). Detached cells were washed and resuspended in assay buffer (1×HBSS; 20 mM HEPES, 0.1% BSA, 2 mM IBMX) and cellular density determined. They were then diluted to 400000 cells/ml and 25 μl-aliquots dispensed into the wells of 96-well plates. For measurement, 25 μl of test compound in assay buffer was added to the wells, followed by incubation for 30 minutes at room temperature.
Potencies of peptidic compounds at the GLP-1, glucagon and GIP receptors were determined by exposing cells expressing human glucagon receptor (hGlucagon R), human GIP receptor (hGIP-R) or human GLP-1 receptor (hGLP-1 R) to the listed compounds at increasing concentrations and measuring the formed cAMP as described in Methods.

[2] = Thioflavin T (ThT) assay for physical stability (fibrillation); type: physicochemical; conditions: 3 mg/ml, 100 mM acetate pH 4.5 with m-cresol, shaking at 37° C.
Procedure: Investigations were carried out to determine fibrillation tendencies under stress conditions by shaking at 37° C. within Fluoroskan Ascent FL.
For the tests in Fluoroskan Ascent FL, 200 μL sample were placed into a 96 well mictrotiter plate PS, flat bottom, Greiner Fluotrac No. 655076. Plates were sealed with Scotch Tape (Quiagen). Samples were stressed by continuous cycles of 10 s shaking at 960 rpm and 50 s rest period at 37° C. The kinetic was monitored by measuring fluorescence intensity every 20 minutes.
Peptides were diluted in a buffer system to a final concentration of 3 mg/ml. 20 μL of a 10.1 mM ThT solution in H2O were added to 2 mL of peptide solution to receive a final concentration of 100 μM ThT. For each sample eight replicates were tested.
Tht buffer system A) 100 mM Acetate pH 4.5 including m-cresol (100 mM Natriumacetat trihydrat, pH adjustment using 2N CH3COOH, 2.7 mg/mL m-cresol) Tht buffer system B) 100 mM citrate buffer pH 6.0
Lag time in hours in Thioflavin T (ThT) assay of peptide samples was determined in Tht buffer system A as described in Methods.

[3] = Dynamic light scattering (DLS), hydrodynamic radius as surrogate for interaction parameter kD; type: physicochemical
Procedure: For every peptide solution, the hydrodynamic radius Rh and the diffusion constant D (related via the Stokes-Einstein equation) were determined as an average over triplicates. Both parameters were determined at different concentrations (e.g., Rh1 and D1: 1 mg/ml and Rh5 and D5: 5 mg/ml) in the same buffer system. The difference of these parameters between low and high peptide concentration is a surrogate for the DLS interaction parameter kD. Rh5<Rh1 or D5>D1 correspond to kD>0 and therefore to repulsive inter-particle interactions that result in improved physical (or colloidal) stability.
DLS buffer system A) 25 mM acetate buffer pH4.5, 3 mg/mL L-Methionine, 2.7 mg/mL m-cresol, 18 mg/mL Glycerol 85%
DLS Method C: DLS measurements were performed on a DynaPro Plate Reader II (Wyatt Technology, Santa Barbara, Calif., US) and using one of the following black, low volume, and non-treated plates: polystyrene 384 assay plate with clear bottom (Corning, N.Y., US), polystyrene 96 assay plate with clear bottom (Corning, N.Y., US), cyclo olefin polymer (COP) 384 assay plate with clear bottom (Aurora, Mont., US), or polystyrene 384 assay plate with clear bottom (Greiner Bio-One, Germany). The data were processed with the Dynamics software provided by Wyatt Technology. Parameters of the particle size distribution were determined with non-negatively constrained least squares (NNLS) methods using DynaLS algorithms. Measurements were taken at 25° C. with an 830 nm laser light source at an angle of 158°.
The hydrodynamic radius radius Rh of peptide samples was determined at different peptide concentrations (1 mg/ml and 5 mg/ml) in DLS buffer system A using DLS method C as described in Methods as surrogate for the DLS interaction parameter kD.

[4] = Solubility assessment (UPLC-UV); type: physicochemical; conditions: acetate buffer pH 4.5, 2.7 mg/ml m-cresol (buffer system A), target 10 mg/ml
Procedure: Prior to the solubility measurement of a peptide batch, its purity was determined through UPLC/MS.
Therefore solutions from solid samples were prepared in a buffer systems with a concentration of 10 mg/mL compound based on the previously determined % purity:
Solubility buffer system A) Acetate Buffer pH 4.5, 100 mM sodium acetate trihydrate, 2.7 mg/ml m-Cresol
UPLC-UV was performed after 1 hour of gentle agitation from the supernatant, which was obtained after 15 min of centrifugation at 2500 RCF (relative centrifugal acceleration).
The solubility was determined by the comparison of the UV peak area of 2 μL-injection of a buffered sample diluted 1:10 with a standard curve of a reference peptide with known concentration. The different UV extinction coefficients of sample and reference peptide were calculated based on the different amino acid sequences and considered in the concentration calculation.
Peptide samples were prepared in solubility buffer system A and solubility was assessed as described in Methods.

[5] = Chemical stability assessment (UPLC-UV, relative purity loss); type: physicochemical; conditions: 1 mg/ml, 25 mM acetate buffer pH 4.5 with m-cresol (buffer system A)
Procedure: Prior to the chemical stability measurement of a peptide batch, its purity was determined through UPLC/MS. For stability testing the target concentration was 1 mg pure compound/ml. Therefore solutions from solid samples were prepared in a buffer system with a concentration of 1 mg/mL compound based on the previously determined % purity:
Chemical stability buffer system A) 25 mM acetate buffer pH4.5, 3 mg/mL L-Methionine, 2.7 mg/mL m-cresol, 18 mg/mL Glycerol 85%
Peptide solutions were filtered through […] pore size and filled into aliquots under aseptic conditions. At starting point UPLC-UV was performed by injection of 2 μl of the undiluted sample.
For chemical stability testing, aliquots were stored for 28 days at Sand 40° C. After this time course the samples were centrifuged for 15 min at 2500 RCF. Then 2 μl of the undiluted supernatant were analysed with UPLC-UV.
The chemical stability was rated through the relative loss of purity calculated by the equation: [(purity at starting point)−(purity after 28 days at X° C.)]/(purity at starting point)]*100%
The purity is calculated as [(peak area peptide)/(total peak area)]*100%
Peptide samples were prepared in Chemical stability buffer system A and chemical stability was assessed as described in Methods.

CCCCCCCCCCCCCCCC(=O)NCCOCCOCC(=O)N[C@@H](CCC(=O)N[C@@H](CCC(=O)NCCCC[C@H](NC(=O)[C@H](CC(C)C)NC(=O)[C@H](CCCCN)NC(=O)[C@H](CO)NC(=O)[C@H](CC(C)C)NC(=O)[C@H](CC(=O)O)NC(=O)[C@H](CO)NC(=O)[C@@H](NC(=O)[C@H](Cc1ccccc1)NC(=O)[C@@H](NC(=O)CNC(=O)[C@H](CCC(N)=O)NC(=O)C(C)(C)NC(=O)[C@@H](N)Cc1c[nH]cn1)[C@@H](C)O)[C@@H](C)O)C(=O)N[C@@H](CCC(=O)O)C(=O)N[C@@H](CCC(=O)O)C(=O)N[C@@H](CCC(N)=O)C(=O)N[C@@H](CCCNC(=N)N)C(=O)N[C@@H](CCC(N)=O)C(=O)NC(C)(C)C(=O)N[C@@H](CCC(=O)O)C(=O)N[C@@H](Cc1ccccc1)C(=O)N[C@H](C(=O)N[C@@H](CCC(=O)O)C(=O)N[C@@H](Cc1c[nH]c2ccccc12)C(=O)N[C@@H](CC(C)C)C(=O)N[C@@H](CCCCN)C(=O)N[C@@H](C)C(=O)NCC(=O)NCC(=O)N[C@@H](Cc1c[nH]cn1)C(=O)N1CCC[C@H]1C(=O)N[C@@H](CO)C(=O)NC(C)(C)C(=O)N[C@@H](CCCCN)C(=O)N1CCC[C@H]1C(=O)N1CCC[C@H]1C(=O)N1CCC[C@H]1C(=O)N[C@@H](CCCCN)C(N)=O)[C@@H](C)CC)C(=O)O)C(=O)O [SEQ ID NO: 18, H-Aib-Q-G-T-F-T-S-D-L-S-K-L-K[gGlu-gGlu-AEEA-Palm]-E-E-Q-R-Q-Aib-E-F-I-E-W-L-K-A-G-G-H-P-S-Aib-K-P-P-P-K-NH2] (H-H[Aib]QGTFTSDLSKLK([γGlu-γGlu-AEEA-Palmitoyl])EEQRQ[Aib]EFIEWLKAGGHPS[Aib]KPPPK-NH2)
EC50 [1]: 5.6 pM
Lag time before increase [2]: >45 h

CCCCCCCCCCCCCCCC(=O)N[C@H](CCC(=O)NCCOCCOCC(=O)N[C@@H](CCC(=O)NCCCC[C@H](NC(=O)[C@H](CC(C)C)NC(=O)[C@H](CCCCN)NC(=O)[C@H](CO)NC(=O)[C@H](CC(C)C)NC(=O)[C@H](CC(=O)O)NC(=O)[C@H](CO)NC(=O)[C@@H](NC(=O)[C@H](Cc1ccccc1)NC(=O)[C@@H](NC(=O)CNC(=O)[C@H](CCC(N)=O)NC(=O)C(C)(C)NC(=O)[C@@H](N)Cc1c[nH]cn1)[C@@H](C)O)[C@@H](C)O)C(=O)N[C@@H](CCC(=O)O)C(=O)N[C@@H](CCC(=O)O)C(=O)N[C@@H](CCC(N)=O)C(=O)N[C@@H](CCCNC(=N)N)C(=O)N[C@@H](CCC(N)=O)C(=O)NC(C)(C)C(=O)N[C@@H](CCC(=O)O)C(=O)N[C@@H](Cc1ccccc1)C(=O)N[C@H](C(=O)N[C@@H](CCC(=O)O)C(=O)N[C@@H](Cc1c[nH]c2ccccc12)C(=O)N[C@@H](CC(C)C)C(=O)N[C@@H](CCCCN)C(=O)N[C@@H](C)C(=O)N[C@H](C)C(=O)NCC(=O)N[C@@H](Cc1c[nH]cn1)C(=O)N1CCC[C@H]1C(=O)N[C@@H](CO)C(=O)NC(C)(C)C(=O)N[C@@H](CCCCN)C(=O)N1CCC[C@H]1C(=O)N1CCC[C@H]1C(=O)N1CCC[C@H]1C(=O)N[C@@H](CCCCN)C(N)=O)[C@@H](C)CC)C(=O)O)CC(=O)O [SEQ ID NO: 23, H-Aib-Q-G-T-F-T-S-D-L-S-K-L-K[gGlu-AEEA-gAAA-Palm]-E-E-Q-R-Q-Aib-E-F-I-E-W-L-K-A-dAla-G-H-P-S-Aib-K-P-P-P-K-NH2] (H-H[Aib]QGTFTSDLSKLK([γGlu-AEEA-Adipoyl(4R-palmitoylamino)])EEQRQ[Aib]EFIEWLKA[dA]GHPS[Aib]KPPPK-NH2)
Delta Rh [nm] = Rh5 − Rh1 ([3]; DLS buffer system A pH 4.5): −0.1 nm
Rh1 [nm] c= 1 mg/ml ([3]; hydrodynamic radius, 1 mg/ml, DLS buffer system A pH 4.5, DLS method C, 25° C.): 2.8 nm
Rh5 [nm] c = 5 mg/ml ([3]; hydrodynamic radius, 5 mg/ml, DLS buffer system A pH 4.5, DLS method C, 25° C.): 2.7 nm
Lag time before increase [2]: >45 h
solubility at 1 h [4]: > 10.4 mg/mL
Chemical stability [relative purity loss 28 days 40° C.] (%) at pH 4.5 [5]: 9.6%
